The source of these data is patent publication US6841535B2, “Peptide-mediated transfection agents and methods of use” (Active Motif, priority 2000, dated 2005).

Common to all, as to type: cell-based
The test system of test [1] is HS-68 and NIH 3T3 cell lines. Put plainly: Protein delivery by vector peptides (GFP). The following applies: transfection of GFP; incubated with peptide at a molar ratio of 1:20; 1 h. How it is done:
(§1) We evaluated the ability of peptides designed according to principles described herein, as well as variants thereof, to deliver peptides and proteins into HS-68 and NIH 3T3 cell lines. Peptide delivery was performed with a 32 mer peptide (peptide B), and in some cases a […] peptide (peptide A). The peptides were fluorescently labeled. Peptides (5.0×10^−8M or 5.0×10^−7M) were incubated with one micromolar vector peptide in cell culture medium in the absence of serum for 30 min. Cultured cells (0.5 to 1.0×10^6) were then overlaid with the preformed peptide/vector peptide complexes in 500 μL DMEM for one hour in the presence or absence of FCS. Complexes were formed prior to addition of FCS to avoid interactions between ep-vector and serum proteins. Following this transfection step, fresh DMEM supplemented with serum was added for another hour. Then cells were extensively washed, fixed and analyzed by fluorescence microscopy.
To investigate protein delivery we tested the delivery into cells of the fluorescent protein GFP. The protein was incubated with peptide at a molar ratio of 1:20, followed by overlay of the complex onto cultured cells. This was followed by incubation for 1 h. Then cells were extensively washed and fixed with formalin before observation.
(§2) The results of the experiments testing the transfection properties of the peptides are presented as a table in which the sequences are aligned for optimal comparison: […]

Another test concerns Jurkat T and WI 38 cells. Put plainly: Pep-2 delivery of p27(kip1), cell cycle arrest in G1 (FACS, BrDu). The following applies: Pep-2 alone. Here is the method:
The number of cells in the G1 phase was determined by BrDU incorporation.
The number of cells in the G1 phase was determined by FACs analysis.
p27(kip1) was expressed in E coli, and purified as a his-tagged protein. Pep-2/p27kip1 complexes were formed in PBS (500 μl of DMEM containing 50 nM of protein and 0.1 μM of Pep-2) and incubated for 30 min at 37° C. Jurkat T and WI 38 cells grown to 75% confluency were then overlaid with these preformed complexes. After 1 hr incubation at 37° C., fresh DMEM supplemented with 10% foetal calf serum was added to the cells, without removing the overlay of Pep-2/p27^Kip1, and cells were returned to the incubator for another 30 h. Experiments were performed on both non-synchronized and synchronized cells. The number of cells arrested in G1 was determined both by FACS analysis and BrDu incorporation.

Test [2] concerns HS-68 and NIH 3T3 cell lines. Put plainly: Drug delivery by vector peptides (ANS and Bis-ANS). The following applies: transfection of ANS and Bis-ANS; incubated with peptide at a molar ratio of 1:20; 1 h. Here is the method: For investigation of drug delivery, we used the naphthalene derivatives ANS and Bis-ANS, which have intrinsic fluorescence. The drugs was incubated with peptide at a molar ratio of 1:20, followed by overlay of the complex onto cultured cells. This was followed by incubation for 1 h. Then cells were extensively washed and observed by microscopy.
as §2

Test [3] has as its system human fibroblastic cell line (HS-68) and Cos-7. Put plainly: Pep-2-mediated delivery of FITC-labeled peptides into cells. Here is the method:
(A) Pep-2-mediated delivery of Pep-A at 37 degrees C., (B) Pep-2-mediated delivery of Pep-B at 37 degrees C., (C) Pep-2-mediated delivery of Pep-A at 4 degrees C., (D) concentration dependence of Pep-2-mediated delivery of Pep-A. The efficiency of transfection was determined by counting fluorescent cells. Experiments were performed in the presence (dark bars) or absence (open bars) of serum and at 4 degrees C. (dashed bars).
We next evaluated the ability of Pep-2 to deliver peptides and LMW and HMW proteins into a human fibroblastic cell line (HS-68) and Cos-7. FITC-labeled Pep-A (51-mer) and Pep-B (32-mer) at a concentration of 5 10^−8 M were incubated with different concentrations of Pep-2 from 5 10^−8 M (ratio 1/1) to 2 10^−6 M (ratio 40/1), in serum-free cell culture medium for 30 minutes at 37° C. Cultured cells 0.5 to 1×10^6/35 mm^2 were then overlaid with the preformed Pep-2/peptide complexes for 30 minutes in the presence or absence of FCS. Complexes were formed prior to addition of FCS to avoid interactions between Pep-2 and serum proteins. Following this transfection step, fresh DMEM supplemented with serum was added to the cells for another 30 minutes, after which cells were extensively washed, and examined by fluorescence microscopy. […] Finally, we evaluated the effect of serum in the cell culture medium on the efficiency of peptide transfection.

Test [4] has the same test system. Put plainly: Pep-2-mediated delivery of GFP and β-Gal proteins into cells. Here is the method: The efficiency of transfection was determined by counting fluorescent cells or blue stained cells. (A) Control of beta gal in the absence of Pep-2, (B) Pep-2 delivery of beta gal at 37 degrees C., (C) Pep-2 delivery of beta gal at 4 degrees C., (D) Pep-2 delivery of GFP at 37 degrees C. (E) concentration dependent Pep-2 delivery of GFP. Experiments were performed in the absence (open bars) or presence (dark bars) of serum.
We next evaluated the ability of Pep-2 to deliver peptides and LMW and HMW proteins into a human fibroblastic cell line (HS-68) and Cos-7. FITC-labeled Pep-A (51-mer) and Pep-B (32-mer) at a concentration of 5 10^−8 M were incubated with different concentrations of Pep-2 from 5 10^−8 M (ratio 1/1) to 2 10^−6 M (ratio 40/1), in serum-free cell culture medium for 30 minutes at 37° C. Cultured cells 0.5 to 1×10^6/35 mm^2 were then overlaid with the preformed Pep-2/peptide complexes for 30 minutes in the presence or absence of FCS. Complexes were formed prior to addition of FCS to avoid interactions between Pep-2 and serum proteins. Following this transfection step, fresh DMEM supplemented with serum was added to the cells for another 30 minutes, after which cells were extensively washed, and examined by fluorescence microscopy. […] Conversely, we observed a large decrease in the efficiency of transfection at a ratio greater than 30/1, which may be explained by either precipitation or aggregation of Pep-2/peptide complexes to the cell membrane. […] Finally, we evaluated the effect of serum in the cell culture medium on the efficiency of peptide transfection.
To investigate protein delivery we chose to monitor cell delivery of three very different types of proteins: 30 kDa GFP, 119 kDa β-Gal, and specific antibodies. […] Cells were then extensively washed prior to observation and the efficiency of protein delivery was determined by counting fluorescent cells or by monitoring enzymatic β-galactosidase activity by X-Gal staining. […]

Test [5] has as its system human HS68, murine NIH 3T3 fibroblasts or cos cells. Put plainly: Cellular localization of Pep-2. The following applies: standard cell culture conditions; same at 4° C. or with okadaic acid. From the text:
The rationale in the design of the novel peptide vector, Pep-2, for efficient protein delivery into cells was to satisfy two major requirements: the ability to cross cell membranes and high affinity for protein sequences. To this aim, we elaborated a 21 residue peptide, designated Pep-2 ([…]-cya; SEQ ID NO:7), consisting of three domains: (1) a hydrophobic Trp-rich motif containing five Trp-residues (KETWWETWWTEW (SEQ ID NO:32)), required for efficient targeting to the cell membrane and for forming hydrophobic interactions with proteins, (2) a hydrophilic Lys-rich domain (KKKRKV (SEQ ID NO:33)) derived from the NLS of SV40 large T antigen, required to improve intracellular delivery and solubility of the peptide vector, and (3) a spacer domain (Ser-Gln-Pro), separating the two domains mentioned above, containing a Pro residue, which improves the flexibility and the integrity of both the hydrophobic and the hydrophilic domains. Peptides were acetylated at their N-terminus and synthesized with a cysteamine group at their C-terminus, so as to enable coupling of fluorescent probes (for example, FITC), useful for cellular localization of the peptide. We first investigated the ability of Pep-2 to penetrate into cells and characterized its subcellular localization. […]

In test [6] the test system is HS-68 and NIH 3T3 cell lines. Put plainly: Peptide delivery by vector peptides (fluorescently labeled peptide B / peptide A). The following applies: transfection of fluorescently labeled peptide; one micromolar vector peptide; 1 h. Here is the method: as §1, §2

Regarding KETWWETWWTEWSQPKKKRKV [Pep-2], the Pro in test [1] worked out at 5%. In the test with Jurkat T and WI 38 cells, the “effect on cell cycle progression” value was “no effect on cell cycle progression”. The Drug in test [2] was found to be 5%. For the same sequence, in test [3], the “effect of serum (FCS 10%) on efficiency of peptide delivery” value is reported as “not affected”. Also, the “cells with internalized fluorescent peptide localized to the nucleus” value in test [3] (Pep-2/Pep-A molar ratio of 20/1) is “more than 90%”. In test [4], the “effect of 10% FCS on efficiency of protein delivery” value was “not affected”. Further, the “cells containing fluorescent GFP staining in their cytoplasm” value in test [4] (37 degrees C.) is given as “more than 80%”. Moreover, the “cells exhibiting strong and uniform β-Gal activity” value in test [4] (X-Gal staining) is listed as “All cells”. Also, in test [5], the subcellular localization entry is “nucleus”. Also, in test [6], the Pep is reported as 5%.
